In brackets after ≈: the same amount, converted by molar mass. Read-outs that look alike come from different tables or passages of the source.
How the values were obtained:
[1] = test system: Plasmodium falciparum NF54; assay: P. falciparum in vitro drug sensitivity assay on asexual blood stage parasites ([3H]-hypoxanthine incorporation); type: cell-based; details: read-out: PfNF54 IC50
Escherichia coli ∆tolC = assay: microbe, parasite or virus in culture; type: cell-based; details: for MIC / inhibition at 50 µM: Escherichia coli; for inhibition at 50 µM: read-out: Ec∆tolC inh. at 50 µM (%)
E. coli K12 = assay: In vitro antibacterial activity (growth inhibition, OD600), E. coli wild-type; type: cell-based; details: Escherichia coli
Acinetobacter baumannii = assay: In vitro antibacterial activity (growth inhibition, OD600), A. baumannii; type: cell-based
[2] = test system: Pseudomonas aeruginosa PA14; assay: In vitro antibacterial activity (growth inhibition, OD600), P. aeruginosa; type: cell-based; details: PA14, 50 μM compound, Table 1 and main text, read-out: PA14 inh. at 50 μM
[3] = test system: Streptococcus pneumoniae (DSM20566); assay: In vitro antibacterial activity (MIC), S. pneumoniae; type: cell-based; details: read-out: Sp MIC95
[4] = test system: Staphylococcus aureus ssp. Aureus; assay: In vitro antibacterial activity (MIC), S. aureus; type: cell-based; details: read-out: Sa MIC95
[5] = test system: Mycobacterium tuberculosis (Mtb) strain H37Rv; assay: microbe, parasite or virus in culture; type: cell-based; details: 168 h, 7 days, footnote b: not active at maximum solubility, read-out: MtbH37Rv MIC90
Solubility in 7H9 medium = type: physicochemical; details: M. tuberculosis growth medium (7H9)
in vitro = details: human, HepG2 CC50, 48 h, MTT
[6] = In vitro cytotoxicity by XTT assay; type: cell-based; details: human, human monocyte-derived macrophages (hMdM)
[7] = Plasmodium falciparum, NF54, Table 1 and main text
[8] = K12, 50 μM compound, Table 1 and main text, read-out: EcK12 inh. at 50 μM
[9] = 50 μM compound, Table 1 and main text, read-out: Ab inh. at 50 μM
[10] = Streptococcus pneumoniae, DSM20566, Table 1 and main text
[11] = Streptococcus pneumoniae, DSM20566, Table S2, with standard deviation
[12] = Staphylococcus aureus, Table 1 and main text
[13] = Staphylococcus aureus, Table S2, with standard deviation
[14] = 50 µM, Table S1, with standard deviation, read-out: Ab inh. at 50 µM (%)
[15] = K12, read-out: EcK12 inh. at 50 μM, 50 μM compound, Table 1 and main text

Compound	IC50 [1, 7] [nM]	MIC (Escherichia coli ∆tolC; read-out: EcΔtolC MIC95) [µM]	MIC (Escherichia coli ∆tolC; read-out: Ec∆tolC MIC95 (µM)) [µM]	inhibition at 50 µM (E. coli K12; [8]) [%]	inhibition at 50 µM (Acinetobacter baumannii; [9]) [%]	inhibition at 50 µM [2] [%]	MIC [3, 10] [µM]	MIC [3, 11] [µM]	MIC [4, 12] [µM]	MIC [4, 13] [µM]	MIC90 [5] [µM]	7h9 media Sol. (Solubility in 7H9 medium) [µM]	CC50 (in vitro) [nM]	inhibition at 50 µM (Escherichia coli ∆tolC) [%]	other results
NCc1cccc(NC(=O)c2cc(-c3cc(Cl)ccc3O)[nH]n2)c1 [Compound 7A]	300	47 (≈ 16.1 µg/mL)	47 ± 1 (≈ 16.1 µg/mL)	27	15	44	43 (≈ 14.7 µg/mL)	43 ± 11 (≈ 14.7 µg/mL)	> 50	> 50	> 64	64	28400		
O=C(Nc1ccc(N2CCNCC2)cc1)c1cc(-c2cc(Cl)ccc2O)[nH]n1 [Compound 6A]	140	22.5 (≈ 8.95 µg/mL)	22.5 (≈ 8.95 µg/mL)	49	37	63	45 (≈ 17.9 µg/mL)	45 (≈ 17.9 µg/mL)	> 50	> 50	> 16	16	11800		
O=C(Nc1cccc(F)c1)c1cc(-c2cc(Cl)ccc2O)[nH]n1 [Compound 1b]	700	> 50					> 50	> 50	> 50	> 50		< 8			
NCc1ccc(NC(=O)c2cc(-c3cc(Cl)ccc3O)[nH]n2)cc1 [Compound 8A]	> 2000	> 50					> 50	> 50	> 50	> 50	> 16	16	30000	44 ± 16	IC50 ([1]; Table 1 and main text): 1800 nM
O=C(Nc1cccc(CN2CCNCC2)c1)c1cc(-c2cc(Cl)ccc2O)[nH]n1 [Compound 3A]	620	45 (≈ 18.5 µg/mL)	45 ± 1 (≈ 18.5 µg/mL)	28	21	50	40 (≈ 16.5 µg/mL)	40 ± 7 (≈ 16.5 µg/mL)	> 50	> 50	> 64	64	12000		
O=C(Nc1cccc(C(F)(F)F)c1)c1cc(-c2cc(Cl)ccc2O)[nH]n1 [Compound 1a]	210	> 50		< 10	< 10	< 10	> 50	> 50	> 50	> 50		< 8	> 50000	< 10	EcΔtolC MIC95 (Escherichia coli ∆tolC; Table 1 and main text): >50 µM; MIC ([3]; Table 1 and main text): >50 µM; MIC ([4]; Table 1 and main text): >50 µM
N=C(N)NCc1ccc(NC(=O)c2cc(-c3cc(Cl)ccc3O)[nH]n2)cc1C(F)(F)F [Compound 10G]	250	3.5 (≈ 1.58 µg/mL)	3.5 ± 0.8 (≈ 1.58 µg/mL)	86	49	55	16 (≈ 7.25 µg/mL)	16 ± 5 (≈ 7.25 µg/mL)	5 (≈ 2.26 µg/mL)	5 ± 1 (≈ 2.26 µg/mL)	8 (≈ 3.62 µg/mL)		> 50000		CC90 at 24 h [6]: > 32000 nM
O=C(Nc1cccc([N+](=O)[O-])c1)c1cc(-c2cc(Cl)ccc2O)[nH]n1 [Compound 1c]	510	> 50					> 50	> 50	> 50	> 50	> 32	32			
O=C(Nc1cccc(CN2CCOCC2)c1)c1cc(-c2cc(Cl)ccc2O)[nH]n1 [Compound 2]	1100	> 50					> 50	> 50	> 50	> 50	> 16	16	~50000	24 ± 12	
CC(C)(C)OC(=O)N1CCN(c2cc(NC(=O)c3cc(-c4cc(Cl)ccc4O)[nH]n3)cc(C(F)(F)F)c2)CC1 [Compound 11B]	130	> 50					> 50	> 50	> 50	> 50		< 8	4000	18 ± 4	inhibition at 50 µM (Acinetobacter baumannii; [14]): < 10%
CC(C)(C)OC(=O)N1CCN(c2ccc(NC(=O)c3cc(-c4cc(Cl)ccc4O)[nH]n3)cc2C(F)(F)F)CC1 [Compound 12B, tert-Butyl 4-(4-(5-(5-chloro-2-hydroxyphenyl)-1H-pyrazole-3-carboxamido)-2-(trifluoromethyl)phenyl)piperazine-1-carboxylate]	560	> 50					> 50	> 50	> 50	> 50		< 8	> 50000	< 10	inhibition at 50 µM (Acinetobacter baumannii; [14]): < 10%
N=C(N)NCc1cccc(NC(=O)c2cc(-c3cc(Cl)ccc3O)[nH]n2)c1 [Compound 7G]	210	13 (≈ 5 µg/mL)	13 ± 3 (≈ 5 µg/mL)		24	56	49 (≈ 18.9 µg/mL)	49 (≈ 18.9 µg/mL)	22 (≈ 8.47 µg/mL)	22 ± 2 (≈ 8.47 µg/mL)	64 (≈ 24.6 µg/mL)		> 50000		inhibition at 50 µM (E. coli K12; [15]): ≥ 45%
CC(C)(C)OC(=O)NCc1ccc(NC(=O)c2cc(-c3cc(Cl)ccc3O)[nH]n2)cc1 [Compound 8B]	1700	> 50					> 50	> 50	> 50	> 50		< 8	> 50000	< 10	
N=C(N)NCc1cc(NC(=O)c2cc(-c3cc(Cl)ccc3O)[nH]n2)cc(C(F)(F)F)c1 [Compound 9G]	78	5 (≈ 2.26 µg/mL)	5 ± 2 (≈ 2.26 µg/mL)		59	50	> 50	> 50	8 (≈ 3.62 µg/mL)	8 ± 3 (≈ 3.62 µg/mL)	32 (≈ 14.5 µg/mL)		> 50000		MIC (E. coli K12; K12, Table S1, printed inside the inhibition column, with standard deviation, unit from Table 1 footnote, read-out: EcK12 MIC95): 46 ± 2 µM (≈ 20.8 µg/mL)
N=C(N)N1CCN(c2cc(NC(=O)c3cc(-c4cc(Cl)ccc4O)[nH]n3)ccc2C(F)(F)F)CC1 [Compound 13G, N-(3-(4-Carbamimidoylpiperazin-1-yl)-4-(trifluoromethyl)phenyl)-5-(5-chloro-2-hydroxyphenyl)-1H-pyrazole-3-carboxamide]	500	5 (≈ 2.54 µg/mL)	5 ± 2 (≈ 2.54 µg/mL)		≥ 45	17	16 (≈ 8.13 µg/mL)	16 ± 6 (≈ 8.13 µg/mL)	2.5 (≈ 1.27 µg/mL)	2.5 ± 0.3 (≈ 1.27 µg/mL)	8 (≈ 4.06 µg/mL)		> 25000		inhibition at 50 µM (E. coli K12; [15]): ≥ 45%; CC90 at 24 h [6]: > 32000 nM
O=C(Nc1cccc(N2CCNCC2)c1)c1cc(-c2cc(Cl)ccc2O)[nH]n1 [Compound 5A]	130	21 (≈ 8.36 µg/mL)	21 ± 2 (≈ 8.36 µg/mL)	83	34	60	26 (≈ 10.3 µg/mL)	26 ± 1 (≈ 10.3 µg/mL)	37 (≈ 14.7 µg/mL)	37 ± 10 (≈ 14.7 µg/mL)	64 (≈ 25.5 µg/mL)	64	9000		inhibition at 50 µM (Acinetobacter baumannii; [14]): 34.3 ± 0.4%
O=C(Nc1ccc(CNC2=NCCN2)cc1)c1cc(-c2cc(Cl)ccc2O)[nH]n1 [Compound 8C]	670	21.5 (≈ 8.83 µg/mL)	21.5 (≈ 8.83 µg/mL)	< 10	12	10	> 50	> 50	49 (≈ 20.1 µg/mL)	49 ± 1 (≈ 20.1 µg/mL)	> 64		> 50000		
O=C(Nc1cc(CNC2=NCCN2)cc(C(F)(F)F)c1)c1cc(-c2cc(Cl)ccc2O)[nH]n1 [Compound 9C, 5-(5-Chloro-2-hydroxyphenyl)-N-(3-(((4,5-dihydro-1H-imidazol-2-yl)amino)methyl)-5-(trifluoromethyl)phenyl)-1H-pyrazole-3-carboxamide]	517	7 (≈ 3.35 µg/mL)	7 ± 1 (≈ 3.35 µg/mL)		47	18	15 (≈ 7.18 µg/mL)	15 ± 4 (≈ 7.18 µg/mL)	9 (≈ 4.31 µg/mL)	9 ± 2 (≈ 4.31 µg/mL)	16 (≈ 7.66 µg/mL)		> 50000		inhibition at 50 µM (E. coli K12; K12, 50 µM, Table S1, with standard deviation, read-out: EcK12 inh. at 50 µM (%)): 84 ± 2%; inhibition at 50 µM (E. coli K12; [15]): < 10%
N=C(N)N1CCN(c2ccc(NC(=O)c3cc(-c4cc(Cl)ccc4O)[nH]n3)cc2)CC1 [Compound 6G]	440	9 (≈ 3.96 µg/mL)	9 ± 3 (≈ 3.96 µg/mL)		32	55	25 (≈ 11 µg/mL)	25 ± 2 (≈ 11 µg/mL)	26 (≈ 11.4 µg/mL)	26 ± 2 (≈ 11.4 µg/mL)	64 (≈ 28.2 µg/mL)		> 50000		inhibition at 50 µM (E. coli K12; [15]): ≥ 45%
